Patent publication US8367666B2 (priority 2004, dated 2013)
Read-outs that look alike come from different tables or passages of the source.

How the values were obtained:
CB1 receptor [1] = target: T1, CB1 receptor (Homo sapiens, UniProt P21554); experiment: Human cannabinoid receptor bonding inhibition test ([3H]CP55940), CB1; format: binding; design: expressed in transfected cells; membrane fraction
CB2 receptor [2] = target: T2, CB2 receptor (Homo sapiens, UniProt P34972); experiment: Human cannabinoid receptor bonding inhibition test ([3H]CP55940), CB2; format: binding; design: expressed in transfected cells; membrane fraction
CB1 receptor [3] = target: T1, CB1 receptor; experiment: cAMP formation inhibition experiment through a cannabinoid receptor (forskolin stimulation), CB1; format: cell-based; design: expressed in transfected cells; host or cells: CHO cells
Protocol: A compound being tested was added in the CHO cell which had mad human CB1 or CB2 receptor reveal and incubated for 15 minutes, and then forskolin (the final concentration 4 μM, and manufactured by SIGMA Corp.) was added and the mixture was incubated for 20 minutes. After the reaction had been stopped by adding 1M hydrochloric acid, the amount of cAMP in the supernatant was measured with the use of Cyclic AMP kit (made by the CIS Diagnostic Corp.).

CB2 receptor [4] = target: T2, CB2 receptor; experiment: cAMP formation inhibition experiment through a cannabinoid receptor (forskolin stimulation), CB2; format: cell-based; design: expressed in transfected cells; host or cells: CHO cells
[5] = test system: scratching action induced by Compound 48/80; experiment: Anti-pruritic activity test by application (Compound 48/80 scratching); format: in vivo, mouse (Crj:CD-1 (ICR)); details: Mus musculus, topical, read-out: Itching inhibition ratio % (Concentration %)
Protocol: 1) Preparation of the compound and the reagent: The compound being tested was dissolved in acetone (SIGMA). Compound 48/80 (SIGMA) was dissolved in physiological saline (m by Otsuka Pharmaceutical Co., Ltd.) so as to be 60 μg/mL.
2) Animals: Female Crj: CD-1 (ICR) mice of 6 to 10 age in week (Japan Charles Liver) were used as laboratory animals. The animals were fed in the barrier breeding room where […] in room temperature, 30 to 70% in humidity, and the light and shade condition existed every 12 hours and feed (CE-2: Japan Crea) and the drinking water were freely taken. The hair of dorsa (from the cervical region of the back to the center of the back) of the animals were cut with a hair clipper two days or more before the anti-pruritic activity is evaluated, those with no wound, rubefaction, and thickening of the skin on the dehaired part were chosen and supplied to the experiment on the day of the evaluation. 3) Evaluation procedures: The acetone solution of the compound being tested was applied by 50 μL on the dehaired parts of the mice with a pipeter. On the mice of the control group, 50 μL of acetone was applied. The 15 minutes later, 50 μL (corresponding to 3 μg) of Compound 48/80 solution was injected intradermally in the compound applied parts with the use of a injector (Terumo Corporation), the mice were individually put in five observation cages made of acrylate resin at once, and the scratching action (action of scratching the injection part by the hind leg) frequency during 30 minutes was measured. The evaluation was carried out in one group of 5 to 7 mice. 4) Data processing: The experiment results were shown by the mean values. The test of the significant difference of the compound applying group to the control group was conducted with Welch's t-test, and p<0.05 was assumed to be significant.

[6] = [3H]CP55940 0.5 nM, membrane preparation of CHO cells expressing CB1, Ki calculated from IC50, read-out: Binding activity (nM) CB1
[7] = read-out: Agonist activity (nM) CB1

T2 sequence (P34972 whole entry): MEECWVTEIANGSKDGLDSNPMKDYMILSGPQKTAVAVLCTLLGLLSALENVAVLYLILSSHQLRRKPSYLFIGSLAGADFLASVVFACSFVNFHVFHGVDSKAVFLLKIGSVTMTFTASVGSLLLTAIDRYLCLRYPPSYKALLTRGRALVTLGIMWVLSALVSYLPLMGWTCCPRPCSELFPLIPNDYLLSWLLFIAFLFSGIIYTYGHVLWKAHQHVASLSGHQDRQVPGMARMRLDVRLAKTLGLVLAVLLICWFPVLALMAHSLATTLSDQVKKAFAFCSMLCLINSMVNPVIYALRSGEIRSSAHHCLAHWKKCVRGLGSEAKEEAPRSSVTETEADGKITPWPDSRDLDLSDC
T1 sequence (P21554 whole entry): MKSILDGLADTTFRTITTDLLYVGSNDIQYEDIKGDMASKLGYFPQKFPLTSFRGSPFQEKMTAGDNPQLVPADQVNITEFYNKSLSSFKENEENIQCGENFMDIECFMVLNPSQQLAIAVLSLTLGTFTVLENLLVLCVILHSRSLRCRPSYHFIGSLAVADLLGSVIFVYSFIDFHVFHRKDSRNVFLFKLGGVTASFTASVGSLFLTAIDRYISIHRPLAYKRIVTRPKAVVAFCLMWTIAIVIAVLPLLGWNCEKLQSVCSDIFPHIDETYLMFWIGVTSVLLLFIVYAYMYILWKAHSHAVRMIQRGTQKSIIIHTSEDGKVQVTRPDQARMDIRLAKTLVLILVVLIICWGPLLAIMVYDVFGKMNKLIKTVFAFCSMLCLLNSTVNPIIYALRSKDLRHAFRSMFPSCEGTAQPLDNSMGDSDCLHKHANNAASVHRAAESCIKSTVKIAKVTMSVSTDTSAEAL

SMILES	Ki (CB2 receptor [2]) [nM]	IC50 (CB1 receptor [3]) [nM]	Ki (CB1 receptor [1]; [6]) [nM]	IC50 (CB2 receptor [4]) [nM]	other results
CCc1c(C)cc(C(=O)NC2(C(=O)O)CCCCC2)c(=O)n1Cc1ccc(F)c(F)c1 [XI-027]	54	> 2000	–	–	Ki (CB1 receptor [1]; read-out: Binding activity (nM) CB1): 1360 nM; IC50 (CB2 receptor [4]; read-out: Agonist activity (nM) CB2): 209 nM
CCCCn1c2c(cc(C(=O)NC(CC)(CC)CC(=O)O)c1=O)CCCCCC2 [Compound X-128]	10	152	608	3	–
CCCCn1c2c(cc(C(=O)N[C@H](CC(=O)O)CC(C)C)c1=O)CCCCCC2 [Compound X-138]	42	> 2000	> 2000	30	–
COC(=O)[C@@H](NC(=O)c1cc2c(n(CCCC#N)c1=O)CCCCCC2)C(C)C [Compound I-266]	< 2	–	–	–	inhibition in vivo at 2 % [5]: 64%; Ki (CB1 receptor [1]): 12 nM; IC50 (CB1 receptor [3]; [7]): 12 nM
O=C(NC1(C(=O)O)CCCCCCC1)c1cc2c(n(CC3CCCCC3)c1=O)CCCCCC2 [Compound X-240]	–	–	793	< 2	Ki (CB2 receptor [2]; [3H]CP55940 0.5 nM, membrane preparation of CHO cells expressing CB2, Ki calculated from IC50, read-out: Binding activity (nM) CB2): 6.2 nM; IC50 (CB1 receptor [3]; inhibition of forskolin (4 μM)-stimulated cAMP formation, CHO cells expressing human CB1, read-out: Agonist activity (nM) CB1): 468 nM
O=C(NC(C(=O)O)c1ccco1)c1cc2c(n(CC3CCCCC3)c1=O)CCCCCC2 (stereo not drawn) [Compound I-530]	< 2	–	–	–	inhibition in vivo at 2 % [5]: 74%; Ki (CB1 receptor [1]): 7 nM; IC50 (CB1 receptor [3]; [7]): 305 nM
CCCCn1c2c(cc(C(=O)NC3CCCCC3)c1=O)CCCCCC2 [Compound 10-035, reference compound]	0.2	–	–	–	inhibition in vivo at 5 % [5]: 22%; Ki (CB1 receptor [1]): 19 nM
CCCCn1c2c(cc(C(=O)N[C@H](C(=O)OC)C(C)(C)C)c1=O)CCCCCC2 [Compound I-203]	< 2	–	–	–	inhibition in vivo at 0.5 % [5]: 86%; Ki (CB1 receptor [1]): < 2 nM; IC50 (CB1 receptor [3]; [7]): < 2 nM
CCc1c(C)cc(C(=O)NC2(C(=O)O)CCCCCCC2)c(=O)n1Cc1ccc(F)cc1 [Compound X-239]	10	> 2000	1420	3.6	–
CN(CCO)C(=O)C(C)(C)NC(=O)c1cc2c(n(CC3CCCCC3)c1=O)CCCCCC2 [Compound I-019, 1-cyclohexylmethyl-2-oxo-1,2,5,6,7,8,9,10-octahydro-cycloocta[b]pyridine-3-carboxylic acid {1-[(2-hydroxyethyl)-methyl-carbamoyl]-1-methyl-ethyl}-amide]	< 2	–	2.9	–	inhibition in vivo at 1 % [5]: 74%; IC50 (CB1 receptor [3]; [7]): 8.1 nM
CCCCn1c(CCC)c(CC)cc(C(=O)NC(CC)(CC)CC(=O)O)c1=O [Compound X-196]	31	> 2000	> 2000	45	–
O=C(NC1(C(=O)O)CCCCC1)c1cc2c(n(Cc3ccc(F)c(F)c3)c1=O)CCCCCC2 [XI-017]	6.6	127	441	11	–
CCCCn1c(CCC)c(CC)cc(C(=O)NC2(CC(=O)O)CCCCC2)c1=O [Compound X-174]	8.9	> 2000	> 2000	9.8	–
CCc1c(C)cc(C(=O)Nc2nc(CC(=O)O)cs2)c(=O)n1Cc1ccc(F)cc1 [Compound X-222]	43	> 2000	1620	57	–
CCCCn1c2c(cc(C(=O)NCc3ccccc3)c1=O)CCCCCC2 [Compound 4-101, reference compound]	1.9	–	–	–	inhibition in vivo at 5 % [5]: 7.5%
CCCCn1c2c(cc(C(=O)NC3(C(=O)O)CCCCCCCCC3)c1=O)CCCCCC2 [Compound X-232]	15	> 2000	> 2000	29	–
CCc1c(C)cc(C(=O)Nc2nc(CC(=O)O)ns2)c(=O)n1CC1CCCCC1 [Compound X-133]	5.5	> 2000	> 2000	< 2	–
CCCCn1c(CCC)c(CC)cc(C(=O)NC2(C(=O)O)CCCCCC2)c1=O [Compound X-241]	57	> 2000	> 2000	26	–
